Results: PMC11123841, “Discovery and Synthesis of Hydroxy-L-Proline Blockers of the Neutral Amino Acid Transporters SLC1A4 (ASCT1) and SLC1A5 (ASCT2)” (Molecules, 2024)
Values joined by “and” are separate entries in the source; they are usually repeats but may differ in a detail not shown here. Identical values can stand only once. Like-named read-outs stand apart in the source and are kept apart here.

Tests used:
SLC1A4 [1] = target: T1, SLC1A4 (Homo sapiens, UniProt P43007); assay: TEVC block of anion leak conductance in oocytes; assay type: cell-based
T1 construct: expressed in transfected cells; host or cells: Xenopus laevis oocytes (cRNA injection)
T1 sequence (P43007 1-532): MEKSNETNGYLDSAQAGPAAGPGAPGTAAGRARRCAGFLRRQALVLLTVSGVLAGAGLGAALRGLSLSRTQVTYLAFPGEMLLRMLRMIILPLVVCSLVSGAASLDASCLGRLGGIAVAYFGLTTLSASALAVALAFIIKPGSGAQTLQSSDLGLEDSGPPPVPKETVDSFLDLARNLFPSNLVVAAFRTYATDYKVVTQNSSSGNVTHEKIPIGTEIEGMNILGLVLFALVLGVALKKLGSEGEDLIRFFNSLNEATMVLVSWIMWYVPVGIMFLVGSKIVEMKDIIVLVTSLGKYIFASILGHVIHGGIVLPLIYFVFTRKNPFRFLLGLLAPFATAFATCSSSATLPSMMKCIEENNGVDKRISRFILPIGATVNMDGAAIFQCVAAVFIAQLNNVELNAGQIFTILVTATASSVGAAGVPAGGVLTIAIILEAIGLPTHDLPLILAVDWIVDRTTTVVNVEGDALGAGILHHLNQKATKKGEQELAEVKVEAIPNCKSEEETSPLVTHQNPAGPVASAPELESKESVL
From the text: (§1) The currents induced by substrates and blocked by hydroxyproline analogs shared a reversal potential shown in the current/voltage relationship consistent with the conductance originating from the same ion pore (Figure 3, inset). […] The observed dose–response relationships are independent of competing substrates, and thus provide a direct measure of the equilibrium inhibition constant (Ki). Each synthetic hydroxyproline analog was functionally assessed for its capacity to inhibit SLC1A4 and SLC1A5 leak currents with affinities reported in Table 1 as determined or approximated Ki.
(§2) Two-electrode voltage clamp (TEVC) transporter currents were recorded with a GeneClamp 500 amplifier and Digidata 1320A analog–digital interface (Molecular Devices, San Jose, CA, USA). Electrodes (0.2–1.0 MΩ) were filled with 3M KCl and the recording chamber was grounded with an agar bridge. Data were acquired with Axograph (v1.7.6) and LabChart (v7) and analyzed with Kaleidagraph software (v4.1) (Synergy, Reading, PA, USA). Uncoupled anion currents associated with the transport of substrate and block of SLC1A4 or SLC1A5 mediated leak conductance were recorded in the presence of Ringer with 50% substitution of NaCl by NaSCN to amplify the non-transported anion conductance.
(§3) Figure 3 AHPCs block a leak current in SLC1A4 and SLC1A5. […] Inset (A): The current and voltage relationship for SLC1A4 currents activated by Ala or blocked by 14b are determined by subtracting voltage jumps in buffer.

mSLC1A5 = target: T2, mSLC1A5 (Mus musculus, UniProt P51912); assay: TEVC block of anion leak conductance in oocytes; assay type: cell-based
T2 construct: expressed in transfected cells; host or cells: Xenopus laevis oocytes (cRNA injection)
T2 sequence (P51912 1-553): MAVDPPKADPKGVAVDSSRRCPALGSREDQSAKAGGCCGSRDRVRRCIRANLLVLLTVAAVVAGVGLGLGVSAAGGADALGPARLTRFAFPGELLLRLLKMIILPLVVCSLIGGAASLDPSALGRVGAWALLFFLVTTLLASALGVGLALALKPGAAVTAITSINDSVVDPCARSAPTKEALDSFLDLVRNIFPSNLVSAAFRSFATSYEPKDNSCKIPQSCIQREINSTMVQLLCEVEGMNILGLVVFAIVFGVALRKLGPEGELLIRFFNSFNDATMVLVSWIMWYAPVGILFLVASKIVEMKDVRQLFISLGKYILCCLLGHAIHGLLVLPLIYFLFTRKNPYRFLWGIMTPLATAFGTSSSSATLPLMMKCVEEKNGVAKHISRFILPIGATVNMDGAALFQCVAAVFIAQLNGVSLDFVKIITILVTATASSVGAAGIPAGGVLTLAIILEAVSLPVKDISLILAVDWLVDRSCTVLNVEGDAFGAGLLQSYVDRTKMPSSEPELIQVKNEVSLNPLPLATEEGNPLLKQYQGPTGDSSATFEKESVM
From the text: as §1, §2, §3

SLC1A5 (mASCT2) = target: T3, SLC1A5 (mASCT2) (Mus musculus, UniProt P51912); assay: TEVC substrate-induced SCN- anion currents in Xenopus oocytes; assay type: cell-based
T3 construct: expressed in transfected cells; host or cells: Xenopus laevis oocytes (cRNA injection)
T3 sequence (P51912 1-553): T2 sequence (P51912 1-553)
Description: (§4) Additionally, 4-HP applied at 1 mM was used to assess activity at the glutamate transporters SLC1A3 or SLC1A1.
(§5) Uptake was halted by washing 3 times with 4 °C ND96 buffer. Oocytes were then lysed in 0.1% Triton X-100, and radioactivity was counted via liquid scintillation. Dose response curves were generated by fitting fractional inhibition (I) to the expression I = Imax × [inhibitor]/([inhibitor] + IC50).
as §2
(§6) (A) SLC1A4 dose response curves for substrate activated anion currents using two-electrode voltage clamp of Xenopus lavies oocytes (−30 mV). […] (B) SLC1A5 dose response curve for substrate activated anion currents using two-electrode voltage clamp (−30 mV). […] Extracellular solutions contained 50 mM NaSCN.

SLC1A4 (hASCT1) = target: T4, SLC1A4 (hASCT1) (Homo sapiens, UniProt P43007); assay: as above; assay type: cell-based
T4 construct: expressed in transfected cells; host or cells: Xenopus laevis oocytes (cRNA injection)
T4 sequence (P43007 1-532): T1 sequence (P43007 1-532)
Description: as §4, §5, §2, §6

SLC1A5 [2] = target: T5, SLC1A5 (Mus musculus, UniProt P51912); assay: [3H]L-Gln radiolabeled uptake competition in oocytes; assay type: cell-based; details: 10 µM [3H]L-Gln uptake in SLC1A5; read-out: IC50, block of [3H]L-Gln uptake
T5 construct: expressed in transfected cells; host or cells: Xenopus laevis oocytes (cRNA injection)
T5 sequence (P51912 1-553): T2 sequence (P51912 1-553)
Description: as §5, §6

SLC1A4 [3] = target: T1, SLC1A4; assay: [3H]L-alanine heteroexchange (trans-stimulation) in preloaded oocytes; assay type: cell-based; details: 3 µM BPOHP, 1 mM L-alanine
Description: as §5

SLC1A5 [4] = target: T5, SLC1A5; assay: as above; assay type: cell-based; details: 3 µM BPOHP, 1 mM L-alanine
Description: as §5

SLC1A4 [5] = details: concentrations up to 1 mM, oocytes expressing SLC1A4; cited from earlier work
ASCT = details: extracellular 300 µM; cited from earlier work
[6] = substrate: O=C(O)[C@H]1NCC[C@@H]1O; assay: TEVC substrate-induced SCN- anion currents in Xenopus oocytes; assay type: cell-based, mouse; details: other: SLC1A5; substrate activated anion currents, TEVC −30 mV, 50 mM NaSCN, Michaelis-Menten fit
[7] = substrate: O=C(O)[C@@H]1C[C@@H](O)CN1; assay: as above; assay type: cell-based, mouse; details: other: SLC1A5; substrate activated anion currents, TEVC −30 mV, 50 mM NaSCN, Michaelis-Menten fit
[8] = substrate: NC(=O)CC[C@H](N)C(=O)O; assay: as above; assay type: cell-based, mouse; details: other: SLC1A5; substrate activated anion currents, TEVC −30 mV, 50 mM NaSCN, Michaelis-Menten fit
[9] = substrate: O=C(O)[C@H]1NCC[C@@H]1O; assay: as above; assay type: cell-based, human; details: other: SLC1A4; substrate activated anion currents, TEVC −30 mV, 50 mM NaSCN, Michaelis-Menten fit
[10] = substrate: O=C(O)[C@@H]1C[C@@H](O)CN1; assay: as above; assay type: cell-based, human; details: other: SLC1A4; substrate activated anion currents, TEVC −30 mV, 50 mM NaSCN, Michaelis-Menten fit
[11] = substrate: C[C@H](N)C(=O)O; assay: cells, lysate or membranes; details: other: SLC1A4; substrate activated anion currents, TEVC −30 mV, 50 mM NaSCN, Michaelis-Menten fit
[12] = from dose–response of blocked anion conductance, compounds tested only once without standard error, read-out: SLC1A4 Ki
[13] = mSLC1A5, from dose–response of blocked anion conductance, compounds tested only once without standard error, read-out: SLC1A5 Ki
[14] = from dose–response of blocked anion conductance, compounds tested only once without standard error

Q: Which results are given for `O=C(O)C1NCC(O)C1Oc1ccccc1` (centres unmarked) [12b]?
A: Ki (SLC1A4 [1]; [12]): 594 ± 191 µM; Ki (mSLC1A5; [13]): 502 ± 110 µM

Q: What does the source list for `O=C(O)C1NCC(c2ccccc2)C1O` (centres unmarked) [10c]?
A: Ki (SLC1A4 [1]; [12]): ~600 µM; Ki (mSLC1A5; [13]): ~600 µM

Q: For `O=C(O)C1NCC(Oc2ccccc2)C1O` [12c, (2S,3R,4S)-3-hydroxy-4-phenoxypyrrolidin-2-carboxylate], which Ki (SLC1A4 [1]; [12]) is on record?
A: ~150 µM

Q: What about the Ki (mSLC1A5; [13]) of the same molecule?
A: ~150 µM

Q: Which Ki (SLC1A4 [1]; [12]) does the source give for `O=C(O)C1NCC(Oc2ccccc2)C1O` (centres unmarked) [12a] here?
A: 150 ± 43 µM

Q: And the Ki (mSLC1A5; [13])?
A: 141 ± 20 µM

Q: For `C[C@]1(O)CN[C@H](C(=O)O)C1` [compound 26, cis-4-methyl-trans-4-hydroxy-L-proline], which “SLC1A4 Ki (µM)” value (SLC1A4 [1]; [14]) is on record?
A: No Block

Q: What does the source list for `O=C(O)[C@@H]1C[C@H](O)CN1` [compound 1, cis-4-hydroxy-L-proline, reference compound]?
A: substrate currents (SLC1A5 (mASCT2)): did not induce detectable substrate currents; substrate currents (SLC1A4 (hASCT1)): did not induce detectable substrate currents; concentration at which leak anion current is blocked (SLC1A4 [1]; SLC1A4 (transporter not given)): above 500 µM; concentration at which leak anion current is blocked (mSLC1A5; SLC1A5 (transporter not given)): above 500 µM

Q: What does the source list for `CC1C(O)CNC1C(=O)O` (centres unmarked) [10b]?
A: Ki (SLC1A4 [1]; [12]): 564 ± 149 µM; Ki (mSLC1A5; [13]): 922 ± 316 µM

Q: Which results are given for `O=C(O)[C@H]1NC[C@H](OCc2ccccc2)[C@H]1O` [17c, cis-3-hydroxy-trans-4-benzyloxy-L-proline]?
A: Ki (SLC1A4 [1]; SLC1A4, read-out: Ki): > 500 µM; Ki (mSLC1A5; SLC1A5, read-out: Ki): > 500 µM

Q: For `O=C(O)[C@H]1NCC[C@@H]1O` [3-HP, trans-3-hydroxy-L-proline], which IC50 (SLC1A5 [2]) is on record?
A: 39 µM

Q: With `C[C@H](N)C(=O)O` [L-Ala, L-alanine, reference compound] as the molecule, how does the “[3H]L-alanine exchange” value (SLC1A4 [3]) read?
A: induces exchange

Q: And the “[3H]L-alanine exchange” value (SLC1A5 [4])?
A: induces exchange

Q: What does the source list for `O=C(O)[C@@H]1CCCN1` [L-proline]?
A: chloride currents (SLC1A4 [5]): does not elicit detectable chloride currents; heteroexchange release of intracellular radiolabeled ASCT substrates (ASCT): capable of inducing heteroexchange release

Q: For `O=C(O)C1NCC(O)C1c1ccccc1` [10d, cis-3-phenyl-4-trans-hydroxy-L-proline], which Ki (SLC1A4 [1]; [12]) is on record?
A: 332 ± 74 µM

Q: And the Ki (mSLC1A5; [13])?
A: 1130 ± 318 µM

Q: What does the source list for `CC(C)O[C@@H]1CN[C@H](C(=O)O)[C@H]1O` [14b, trans-3-hydroxy-cis-4-isopropoxy-L-proline]?
A: block of anion leak conductance / inhibition (SLC1A4 [1]; SLC1A4): block the anion conductance; block of anion leak conductance / inhibition (mSLC1A5; SLC1A5): block the anion conductance

Q: Which results are given for `CC1CNC(C(=O)O)C1O` [10a, trans-3-hydroxy-cis-4-methyl-L-proline]?
A: block of anion leak conductance / inhibition (SLC1A4 [1]; SLC1A4): no inhibition of transport; Ki (SLC1A4 [1]; [12]): 1050 ± 110 µM; block of anion leak conductance / inhibition (mSLC1A5; SLC1A5): no inhibition of transport; Ki (mSLC1A5; [13]): 1150 ± 283 µM

Q: With `C[C@@]1(O)CN[C@H](C(=O)O)C1` [compound 27, cis-4-hydroxy-trans-4-methyl-L-proline] as the molecule, how does the “SLC1A4 Ki (µM)” value (SLC1A4 [1]; [14]) read?
A: No Block

Q: With `CO[C@H]1CN[C@H](C(=O)O)[C@@H]1O` [17a] as the molecule, how does the Ki (SLC1A4 [1]; SLC1A4, read-out: Ki) read?
A: > 500 µM

Q: And the Ki (mSLC1A5; SLC1A5, read-out: Ki)?
A: > 500 µM

Q: Which “block of anion leak conductance / inhibition” value (SLC1A4 [1]; SLC1A4) does the source give for `O=C(O)[C@H]1NC[C@@H](OCc2ccccc2)[C@@H]1O` [14c] here?
A: block the anion conductance

Q: What about the “fold higher affinity than 12a” value (SLC1A4 [1]; SLC1A4) of the same molecule?
A: ~ 6 fold

Q: And the Ki (SLC1A4 [1]; SLC1A4, read-out: Ki)?
A: < 100 µM

Q: What about the “block of anion leak conductance / inhibition” value (mSLC1A5; SLC1A5) of the same molecule?
A: block the anion conductance

Q: And the “fold higher affinity than 12a” value (mSLC1A5; SLC1A5)?
A: ~ 6 fold

Q: And the Ki (mSLC1A5; SLC1A5, read-out: Ki)?
A: < 100 µM

Q: With `CC(C)O[C@H]1CN[C@H](C(=O)O)[C@@H]1O` [17b] as the molecule, how does the Ki (SLC1A4 [1]; [12]) read?
A: 505 ± 105 µM

Q: What about the Ki (mSLC1A5; [13]) of the same molecule?
A: ~400 µM

B1: SLC1A5 (mASCT2) (Mus musculus) (protein)
chain: T2 sequence (P51912 1-553)
notes: expressed in transfected cells; host or cells: Xenopus laevis oocytes (cRNA injection)
Q: What does the source list for B1?
A: Km [6]: 28.6 ± 6.4 µM; Km [7]: 76.3 ± 11.0 µM; Km [8]: 47.4 ± 4.6 µM

B2: SLC1A4 (hASCT1) (Homo sapiens) (protein)
chain: T1 sequence (P43007 1-532)
notes: as for B1
Q: What does the source list for B2?
A: Km [9]: 13.5 ± 1.8 µM; Km [10]: 17.1 ± 0.8 µM; Km [11]: 40.0 ± 1.8 µM and 40.3 µM
